We go through five molecules from patent US20100285959A1, “HERBICIDAL MIXTURES” (priority 2006, published 2010).

Data set [1] concerns common ragweed (AMBEL). Put plainly: Test 2 field trial, preemergence. It counts as in vivo, Ambrosia artemisiifolia. Set-up: scale not given here. An excerpt:
Corn seeds (hybrid ‘Pioneer 31G96’) were planted in mid spring season, 3.8 cm deep in a clay loam soil having 2% organic matter and a pH of 6.6. Plots were 6.1 m long by 3.0 m wide with rows spaced 76 cm apart. Seeds were spaced 15 cm apart within the rows. The field was managed using conventional tillage practices. […] A few of the weed species could not be evaluated at every timing. […] Results are the means of the three replicates.

In data set [2] the test system is common lambsquarters (CHEAL). Put plainly: Test 3 field trial, emerged weeds before corn planting. It counts as in vivo, Chenopodium album. The note with it: 68 DAA; Cpd 2 100, glyphosate 1540, paraquat 1150 g a.i./ha, alone or combined. An excerpt:
Corn seeds (hybrid ‘Pioneer 33J56’) were planted in early spring season, 3.8 cm deep in a silt loam soil having 2.4% organic matter and a pH of 6. Plots were 6.1 m long by 2.7 m wide with rows spaced 91.4 cm apart. The field was managed using no-till practices. […] Compound 2 and paraquat treatments, alone and in combination, also included a surfactant. Glyphosate, alone and with Compound 2, included ammonium sulfate in the treatment mixture. […] The effects on the weeds in the treated plots and untreated control plots were recorded 30, 42, 46 and 68 days after application. Most of the weed species could not be evaluated at every timing. Corn response was not evaluated because the growth was highly variable depending on the efficacy of the weed control treatments. […] Results are the means of the three replicates.

Data set [3] has as its system bushy wallflower (ERYRE). Put plainly: Test 9 field trial, emerged weeds before corn planting. It counts as in vivo, Erysimum repandum. The note with it: g a.i./ha: Cpd 2 100, Glyphosate 1540, Paraquat 1150. Here is the method: Corn seeds (hybrid ‘Pioneer 34M91 RR’) were planted in mid spring season, about 3.8 cm deep in a silty clay loam soil having a pH of 6.7. Plots were 9.1 m long by 3.0 m. The field was managed using no-till practices. […] Compound 2 and paraquat treatments, alone and in combination, also included a surfactant. Glyphosate, alone and with Compound 2, included ammonium sulfate in the treatment mixture. […] The effects on the weeds in the treated plots and untreated control plots were recorded 7, 14, 23, 30 and 57 days after application. Most of the weed species could not be evaluated at every timing. Corn response was only evaluated 57 days after application. […] Results are the means of the three replicates.

Data set [4] deals with common sugarcane (SACOF). Put plainly: Test 12 field trial, preemergence. The note with it: Cpd 2 or Cpd 1 62 g a.i./ha, Diuron 2000 g a.i./ha. Set-up: scale not given here. It counts as in vivo, Saccharum officinarum. The source says: (§1) In early-mid spring season, corn seeds (hybrid ‘Pioneer 3041’) were planted 5 cm deep and sugarcane nodes (variety RB-72.454) were planted 10 cm deep in separate plots in a clay soil having 2.6% organic matter and a pH of 5.6. Plots were 24 m long by 1.5 m wide with rows spaced 80 cm (corn) or 140 cm (sugarcane) apart. Corn seeds were spaced 15 cm apart and sugarcane nodes were spaced 10 cm apart within the rows. At the same time, weed seeds were broadcast over the surface of separate plots without a crop, one weed species per plot. The weed plots were rotary tilled to incorporate the weed seeds to a variety of depths. The field was managed using conventional tillage practices.

For data set [5], the system named is Florida beggarweed (DEDTO). Put plainly: Test 12 field trial, preemergence. It counts as in vivo, Desmodium tortuosum. Set-up: scale not given here. The note with it: Cpd 2 or Cpd 1 62 g a.i./ha, Diuron 2000 g a.i./ha.
From the text: as §1

Data set [6] relates to winter barley (HORVW). Kind of data set: Test 21 growth chamber, postemergence. It counts as in vivo, Hordeum vulgare. The note with it: 19 DAA. As to the method:
(§2) A test was conducted to evaluate the effects on winter barley (HORVW, Hordeum vulgare L.), winter wheat (TRZAW, Triticum aestivum L.), and several weed species, of mixtures of Compound 2 with the commercial herbicide (2,4-dichlorophenoxy)acetic acid (2,4-D), an auxin mimic. […] Plants were treated postemergence at the 2-4 leaf growth stage, and each treatment was replicated one time. […] Plants were watered as needed. […] Results are from single replicates.

The subject of data set [7] is wild chamomile (MATCH). Kind of data set: Test 21 growth chamber, postemergence. It counts as in vivo, Matricaria chamomilla. The note with it: 19 DAA. As to the method:
as §2

Data set [8] deals with common chickweed (STEME). Kind of data set: Test 21 growth chamber, postemergence. The note with it: 19 DAA. It counts as in vivo, Stellaria media. As to the method:
as §2

In data set [9] the test system is field violet (VIOAR). Kind of data set: Test 21 growth chamber, postemergence. It counts as in vivo, Viola arvensis. The note with it: 19 DAA. As to the method:
as §2

The subject of data set [10] is redroot pigweed (AMARE). Put plainly: Test 22 growth chamber, postemergence. It counts as in vivo, Amaranthus retroflexus. The note with it: 25 DAA. Here is the method: A test was conducted to evaluate the effects on winter barley (HORVW, Hordeum vulgare L.), winter wheat (TRZAW, Triticum aestivum L.), and several weed species of mixtures of Compound 2 with the commercial herbicides (2,4-dichlorophenoxy)acetic acid (2,4-D) and (4-chloro-2-methylphenoxy)acetic acid (MCPA), auxin mimics. […] Plants were treated postemergence at the 2-4 leaf growth stage, except KCHSC, SASKR and STEME which were in the 4-8 leaf growth stage. Each treatment was replicated one time. […] Plants were watered as needed. […] Results are from single replicates.

Where [11] appears, read: 18 DAA, g a.i./ha: Cpd 2 25, Atrazine 250.
Where [12] appears, read: 18 DAA, g a.i./ha: Cpd 2 50, Atrazine 500.
Where [13] appears, read: 18 DAA, g a.i./ha: Cpd 2 75, Atrazine 750.
Setting [14] is: 18 DAA, g a.i./ha: Cpd 2 100, Atrazine 1000.
The mark [15] stands for this setting: 18 DAA, g a.i./ha: Cpd 2 150, Atrazine 1500.
Setting [16] is: 28 DAA, g a.i./ha: Cpd 2 25, Atrazine 250.
The mark [17] stands for this setting: 28 DAA, g a.i./ha: Cpd 2 50, Atrazine 500.
[18] abbreviates: 28 DAA, g a.i./ha: Cpd 2 75, Atrazine 750.
Setting [19] is: 28 DAA, g a.i./ha: Cpd 2 100, Atrazine 1000.
Setting [20] is: 28 DAA, g a.i./ha: Cpd 2 150, Atrazine 1500.
The mark [21] stands for this setting: 55 DAA, g a.i./ha: Cpd 2 25, Atrazine 250.
Where [22] appears, read: 55 DAA, g a.i./ha: Cpd 2 50, Atrazine 500.
The mark [23] stands for this setting: 55 DAA, g a.i./ha: Cpd 2 75, Atrazine 750.
Setting [24] is: 55 DAA, g a.i./ha: Cpd 2 100, Atrazine 1000.
The mark [25] stands for this setting: 55 DAA, g a.i./ha: Cpd 2 150, Atrazine 1500.

On to `COC(=O)c1nc(C2CC2)nc(N)c1Cl` [Compound 2, methyl 6-amino-5-chloro-2-cyclopropyl-4-pyrimidinecarboxylate], for which the “AMBEL Obs” value in data set [1] (setting [11]) is 18; in [1] (setting [12]), 27; in data set [1] (setting [13]) it was 53; in data set [1] (setting [14]) it was 70; in data set [1] (setting [15]) it was 70; in data set [1] (setting [16]), 10. Also, the “AMBEL Obs” value in data set [1] (setting [17]) was determined as 48; in data set [1] (setting [18]), 70; in [1] (setting [19]), 88; in data set [1] (setting [20]) it was 97; in [1] (setting [21]) it was 10; in data set [1] (setting [22]) it was 33. Further, the “AMBEL Obs” value is listed as 42 in data set [1] (setting [23]), 77 in data set [1] (setting [24]) and 93 in [1] (setting [25]). Also, the “CHEAL Obs” value in data set [2] was 100%. Further, the “ERYRE Obs” value in data set [3] (7 DAA) came to 20%; in data set [3] (14 DAA), 3%; in data set [3] (23 DAA), 3%; in data set [3] (30 DAA) it was 0%; in data set [3] (57 DAA) it was 0%. Besides, the “SACOF Obs” value worked out at 0 in data set [4] (15 DAA), 0 in data set [4] (29 DAA), 0 in [4] (48 DAA) and 5 in data set [4] (61 DAA). The “DEDTO Obs” value was 100 in data set [5] (15 DAA), 70 in data set [5] (29 DAA), 80 in data set [5] (48 DAA) and 60 in [5] (61 DAA). Further, the “Postemergence HORVW Obs” value in data set [6] (Cpd 2 alone 16 g a.i./ha) is 30. Moreover, in data set [7] (Cpd 2 alone 16 g a.i./ha), the “Postemergence MATCH Obs” value was found to be 60. In addition, the “Postemergence STEME Obs” value in [8] (Cpd 2 alone 16 g a.i./ha) was found to be 65. For the same molecule, the “Postemergence VIOAR Obs” value in [9] (Cpd 2 alone 16 g a.i./ha) stood at 60. In addition, the “Postemergence AMARE Obs” value was determined as 55 in data set [10] (Cpd 2 alone 4 g a.i./ha), 65 in data set [10] (Cpd 2 alone 8 g a.i./ha) and 65 in [10] (Cpd 2 alone 16 g a.i./ha).

For the molecule `O=C(O)CNCP(=O)(O)O` [Glyphosate], the “CHEAL Obs” value in [2] was found to be 0%. Further, the “ERYRE Obs” value in data set [3] (7 DAA) is given as 63%; in data set [3] (14 DAA), 74%; in data set [3] (23 DAA) it was 89%; in data set [3] (30 DAA), 100%; in [3] (57 DAA), 100%.

`CCNc1nc(Cl)nc(NC(C)C)n1` [Atrazine, atrazine, reference compound]: the “AMBEL Obs” value worked out at 20 in data set [1] (setting [11]); 43 in data set [1] (setting [12]); 57 in data set [1] (setting [13]); 40 in [1] (setting [14]); 48 in data set [1] (setting [15]); 18 in data set [1] (setting [16]). In addition, the “AMBEL Obs” value in data set [1] (setting [17]) was found to be 69; in [1] (setting [18]), 83; in data set [1] (setting [19]), 86; in data set [1] (setting [20]), 98; in [1] (setting [21]) it was 12; in [1] (setting [22]), 22. The “AMBEL Obs” value is on record as 63 in data set [1] (setting [23]), 72 in [1] (setting [24]) and 90 in data set [1] (setting [25]).

For `O=C(O)COc1ccc(Cl)cc1Cl` [2,4-D, (2,4-dichlorophenoxy)acetic acid], the “Postemergence HORVW Obs” value in data set [6] (2,4-D alone 125 g a.i./ha) and in [6] (2,4-D alone 250 g a.i./ha) was 25 in each case. In addition, the “Postemergence MATCH Obs” value is given as 40 in data set [7] (2,4-D alone 125 g a.i./ha) and 45 in [7] (2,4-D alone 250 g a.i./ha). The “Postemergence STEME Obs” value in [8] (2,4-D alone 125 g a.i./ha) and in data set [8] (2,4-D alone 250 g a.i./ha) was 50 in each case. In addition, the “Postemergence VIOAR Obs” value in data set [9] (2,4-D alone 125 g a.i./ha) is on record as 0; in data set [9] (2,4-D alone 250 g a.i./ha), 20. In data set [10] (2,4-D or MCPA alone 250 g a.i./ha), the “Postemergence AMARE Obs” value is given as 70.

In the case of `Nc1nc(C2CC2)nc(C(=O)O)c1Cl` [Compound 1, 6-amino-5-chloro-2-cyclopropyl-4-pyrimidinecarboxylic acid], the “SACOF Obs” value in [4] (15 DAA) is on record as 0; in data set [4] (29 DAA), 0; in data set [4] (48 DAA), 0; in [4] (61 DAA), 5. Also, the “DEDTO Obs” value in data set [5] (15 DAA) came to 95; in [5] (29 DAA), 75; in [5] (48 DAA) it was 60; in data set [5] (61 DAA), 60.
